The record followed here is patent US10407428B2, “Spiro-isoquinoline-1,4′-piperidine compounds having multimodal activity against pain” (ESTEVE PHARMACEUTICALS, S.A., priority 2014, dated 2019).

A word on the pKi: it is the Ki on a negative log10 scale, so that one unit is a factor of ten.

The test addresses human σ1 receptor and human μ-opioid receptor. The experiment in a line: Human σ1 receptor radioligand assay and human μ-opioid receptor radioligand assay (μ and σ1 dual binding). Also on record: key to μ and σ1 dual binding: +: Both Ki-μ and Ki-σ1>=500 nM; ++: One Ki<500 nM while the other Ki is >=500 nM; +++: Both Ki-μ and Ki-σ1<500 nM; ++++: Both Ki-μ and Ki-σ1<100 nM.
[1] abbreviates: combined class for Ki-μ ([3H]-DAMGO, CHO-K1 membranes) and Ki-σ1 ([3H](+)-pentazocine, HEK-293 membranes).

pKi: −log10 of the molar value. Where two headings read alike, the source gives them in different places.

In the case of `CN1CCc2ccccc2C12CCN(CCNCCO)CC2` [Example 160, 2-(2-(2-Methyl-3,4-dihydro-2H-spiro[isoquinoline-1,4′-piperidine]-1′-yl)ethylamino)ethanol], the pKi under setting [1] is at most 6.30.
`CCN1CCc2ccccc2C12CCN(CC(=O)N1CCC(F)CC1)CC2` [Example 150, 2-(2-ethyl-3,4-dihydro-2H-spiro[isoquinoline-1,4′-piperidine]-1′-yl)-1-(4-fluoropiperidin-1-yl)ethanone] showed a negative logarithm of the Ki (pKi) of over 6.30.
In the case of `CC(=O)N1CCc2ccccc2C12CCN(CCOCc1ccccc1)CC2` [Example 32, 1-(1′-(2-(benzyloxy)ethyl)-3,4-dihydro-2H-spiro[isoquinoline-1,4′-piperidine]-2-yl)ethanone], the “μ and σ1 dual binding” value was “++”.
Consider `CN1CCc2ccccc2C12CCN(CC(=O)N1CC[C@H](F)C1)CC2` [Example 94, (S)-1-(3-fluoropyrrolidin-1-yl)-2-(2-methyl-3,4-dihydro-2H-spiro[isoquinoline-1,4′-piperidine]-1′-yl)ethanone], for which the “μ and σ1 dual binding” value is reported as “++”.
For the compound `OCCN1CCc2ccccc2C12CCN(CCc1ccccc1)CC2` [Example 123, 2-(1′-Phenethyl-3,4-dihydro-2H-spiro[isoquinoline-1,4′-piperidin]-2-yl)ethanol], the pKi is over 7.00.
For the compound `CC(C)N(C)C(=O)CN1CCC2(CC1)c1ccccc1CCN2C` [Example 103, N-isopropyl-N-methyl-2-(2-methyl-3,4-dihydro-2H-spiro[isoquinoline-1,4′-piperidine]-1′-yl)acetamide], the negative logarithm of the Ki (pKi) was over 6.30.
Compound `CN1CCc2ccccc2C12CCN(CC(O)c1ccncc1F)CC2` (stereo not shown) [Example 113, 1-(3-fluoropyridin-4-yl)-2-(2-methyl-3,4-dihydro-2H-spiro[isoquinoline-1,4′-piperidine]-1′-yl)ethanol] showed a negative-log Ki (pKi) of over 6.30.
In turn, `CN1CCc2ccccc2C12CCN(C[C@@H](O)c1ccncc1F)CC2` [Example 143, (S)-1-(3-fluoropyridin-4-yl)-2-(2-methyl-3,4-dihydro-2H-spiro[isoquinoline-1,4′-piperidine]-1′-yl)ethanol] had a pKi of over 6.30.
In the case of `CC(=O)N1CCc2ccccc2C12CCN(CCNC(=O)OC(C)(C)C)CC2` [Example 37, tert-butyl 2-(2-acetyl-3,4-dihydro-2H-spiro[isoquinoline-1,4′-piperidine]-1′-yl)ethylcarbamate], the pKi under setting [1] was at most 6.30.
For `COCCN1CCc2ccccc2C12CCN(CCc1ccccc1)CC2` [Example 122, 2-(2-Methoxyethyl)-1′-phenethyl-3,4-dihydro-2H-spiro[isoquinoline-1,4′-piperidine]], the negative-log Ki (pKi) is over 6.30.
On to `O=C(CN1CCC2(CC1)c1ccccc1CCN2CCO)N1CCCCC1` [Example 126, 2-(2-(2-Hydroxyethyl)-3,4-dihydro-2H-spiro[isoquinoline-1,4′-piperidine]-1′-yl)-1-(piperidin-1-yl)ethanone], for which the “μ and σ1 dual binding” value is recorded as “++”.
As for `CCC(CC)N(C)C(=O)CN1CCC2(CC1)c1ccccc1CCN2CC` [Example 152, 2-(2-ethyl-3,4-dihydro-2H-spiro[isoquinoline-1,4′-piperidine]-1′-yl)-N-methyl-N-(pentan-3-yl)acetamide], the “μ and σ1 dual binding” value is listed as “++”.
On to `CC(=O)N1CCc2ccccc2C12CCN(CCOCC1CC1)CC2` [Example 30, 1-(1′-(2-(cyclopropylmethoxy)ethyl)-3,4-dihydro-2H-spiro[isoquinoline-1,4′-piperidine]-2-yl)ethanone], for which the negative logarithm of the Ki (pKi) is over 6.30.
`CN1CCc2ccccc2C12CCN(C[C@@H](O)c1ccncc1)CC2` [Example 100, (S)-2-(2-methyl-3,4-dihydro-2H-spiro[isoquinoline-1,4′-piperidine]-1′-yl)-1-(pyridin-4-yl)ethanol] had a negative-log Ki (pKi) of over 6.30.
With `CCN(CC1CC1)C(=O)CN1CCC2(CC1)c1ccccc1CCN2C` [Example 101, N-(cyclopropylmethyl)-N-ethyl-2-(2-methyl-3,4-dihydro-2H-spiro[isoquinoline-1,4′-piperidine]-1′-yl)acetamide], the pKi was over 6.30.
Turning to `CN(Cc1ccccc1)C(=O)CN1CCC2(CC1)c1ccccc1CCN2C` [Example 93, N-benzyl-N-methyl-2-(2-methyl-3,4-dihydro-2H-spiro[isoquinoline-1,4′-piperidine]-1′-yl)acetamide], the pKi was over 7.00.
On the same count and under the same terms, in the case of `CN1CCc2ccccc2C12CCN(CCN1CCCCC1)CC2` [Example 79, 2-methyl-1′-(2-(piperidin-1-yl)ethyl)-3,4-dihydro-2H-spiro[isoquinoline-1,4′-piperidine]] it was over 6.30.
Consider `CC(=O)N1CCc2ccccc2C12CCN(CC1CCOCC1)CC2` [Example 9, 1-(1′-((tetrahydro-2H-pyran-4-yl)methyl)-3,4-dihydro-2H-spiro[isoquinoline-1,4'-piperidine]-2-yl)ethanone], for which the “μ and σ1 dual binding” value is given as “++”.
The compound `CC(C)OCCN1CCC2(CC1)c1ccccc1CCN2C` [Example 78, 1′-(2-isopropoxyethyl)-2-methyl-3,4-dihydro-2H-spiro[isoquinoline-1,4′-piperidine]] showed a negative-log Ki (pKi) of over 6.30.
Still for that read-out and setting: in the case of `CCN(C(=O)CN1CCC2(CC1)c1ccccc1CCN2CC)C(C)C` [Example 144, N-ethyl-2-(2-ethyl-3,4-dihydro-2H-spiro[isoquinoline-1,4′-piperidine]-1′-yl)-N-isopropylacetamide] it was over 6.30.
On to `CCN(CC)C(=O)CN1CCC2(CC1)c1ccccc1CCN2C` [Example 56, N,N-diethyl-2-(2-methyl-3,4-dihydro-2H-spiro[isoquinoline-1,4′-piperidine]-1′-yl)acetamide], for which the pKi is over 6.30.
Regarding `CCC(CC)N(C)C(=O)CN1CCC2(CC1)c1ccccc1CCN2C` [Example 111, N-methyl-2-(2-methyl-3,4-dihydro-2H-spiro[isoquinoline-1,4′-piperidine]-1′-yl)-N-(pentan-3-yl)acetamide], the negative logarithm of the Ki (pKi) is over 6.30.
Compound `CCN(C(=O)CN1CCC2(CC1)c1ccccc1CCN2C)C1CC1` [Example 106, N-cyclopropyl-N-ethyl-2-(2-methyl-3,4-dihydro-2H-spiro[isoquinoline-1,4′-piperidine]-1′-yl)acetamide] showed a negative-log Ki (pKi) of over 6.30.
In the case of `CN1CCc2ccccc2C12CCN(CC(=O)N1CCC(C(C)(C)O)CC1)CC2` [Example 59, 1-(4-(2-hydroxypropan-2-yl)piperidin-1-yl)-2-(2-methyl-3,4-dihydro-2H-spiro[isoquinoline-1,4′-piperidine]-1′-yl)ethanone], the pKi under setting [1] is at most 6.30.
With `CN1CCc2ccccc2C12CCN(CC1CCOCC1)CC2` [Example 67, 2-methyl-1′-((tetrahydro-2H-pyran-4-yl)methyl)-3,4-dihydro-2H-spiro[isoquinoline-1,4′-piperidine]], the “μ and σ1 dual binding” value is reported as “++”.
`CN1CCc2ccccc2C12CCN(CC(=O)N1CCC3(CC1)CC3)CC2` [Example 62, 2-(2-methyl-3,4-dihydro-2H-spiro[isoquinoline-1,4′-piperidine]-1′-yl)-1-(6-azaspiro[2.5]octan-6-yl)ethanone] gave a pKi of over 7.00.
The same measure, in the same setting: in the case of `CN1CCc2ccccc2C12CCN(CCc1cccnc1)CC2` [Example 76, 2-methyl-1′-(2-(pyridin-3-yl)ethyl)-3,4-dihydro-2H-spiro[isoquinoline-1,4′-piperidine]] it was over 6.30.
With `OCCN1CCc2ccccc2C12CCN(CCc1ccncc1)CC2` [Example 129, 2-(1′-(2-(pyridin-4-yl)ethyl)-3,4-dihydro-2H-spiro[isoquinoline-1,4′-piperidine]-2-yl)ethanol], the “μ and σ1 dual binding” value is “++”.
In the case of `CCCN(C(=O)CN1CCC2(CC1)c1ccccc1CCN2C)C(C)C` [Example 107, N-isopropyl-2-(2-methyl-3,4-dihydro-2H-spiro[isoquinoline-1,4′-piperidine]-1′-yl)-N-propylacetamide], the “μ and σ1 dual binding” value was “++”.
For `CN1CCc2ccccc2C12CCN(CC(=O)N1CCOCC1)CC2` [Example 70, 2-(2-methyl-3,4-dihydro-2H-spiro[isoquinoline-1,4′-piperidine]-1′-yl)-1-morpholinoethanone], the negative-log Ki (pKi) is over 6.30.
Take `CCN(CC(C)C)C(=O)CN1CCC2(CC1)c1ccccc1CCN2C` [Example 104, N-ethyl-N-isobutyl-2-(2-methyl-3,4-dihydro-2H-spiro[isoquinoline-1,4′-piperidine]-1′-yl)acetamide]: the “μ and σ1 dual binding” value is “++”.
Turning to `CN(C)C(=O)CN1CCC2(CC1)c1ccccc1CCN2C` [Example 73, N,N-dimethyl-2-(2-methyl-3,4-dihydro-2H-spiro[isoquinoline-1,4′-piperidine]-1′-yl)acetamide], the “μ and σ1 dual binding” value is listed as “++”.
For `CC(=O)N1CCc2ccccc2C12CCN(Cc1ccccn1)CC2` [Example 17, 1-(1′-(pyridin-2-ylmethyl)-3,4-dihydro-2H-spiro[isoquinoline-1,4′-piperidine]-2-yl)ethanone], the “μ and σ1 dual binding” value is “++”.
As to `CCN1CCc2ccccc2C12CCN(CCc1ccccc1)CC2` [Example 63, 2-Ethyl-1′-phenethyl-3,4-dihydro-2H-spiro[isoquinoline-1,4′-piperidine]], the pKi is over 7.00.
The same measure, in the same setting: the same measure for `CN1CCc2ccccc2C12CCN(CC(=O)N1CCC(C(F)(F)F)CC1)CC2` [Example 91, 2-(2-methyl-3,4-dihydro-2H-spiro[isoquinoline-1,4′-piperidine]-1′-yl)-1-(4-(trifluoromethyl)piperidin-1-yl)ethanone]: over 6.30.
In the case of `CC(=O)N1CCc2ccccc2C12CCN(CCOc1ccccn1)CC2` [Example 42, 1-(1′-(2-(Pyridin-2-yloxy)ethyl)-3,4-dihydro-2H-spiro[isoquinoline-1,4′-piperidine]-2-yl)ethanone], the “μ and σ1 dual binding” value is on record as “++”.
Regarding `CN1CCc2ccccc2C12CCN(CC(=O)N1CCCOCC1)CC2` [Example 57, 2-(2-methyl-3,4-dihydro-2H-spiro[isoquinoline-1,4′-piperidine]-1′-yl)-1-(1,4-oxazepan-4-yl)ethanone], the “μ and σ1 dual binding” value is on record as “++”.
